Entries after “also recorded” stand apart in the source; their conditions may differ.
Tests used:
CCR5 = CCR5 (Homo sapiens, UniProt P51681); details: Jiao 2018; cited from earlier work
[1] = test system: circulating tumor cells (CTC), epithelial mesenchymal transition cells (EMTs) and cancer-associated macrophage-like cells (CAMLs); experiment: Phase Ib/II mTNBC study: CTC, EMT and CAML counts in blood (LifeTrac Assay, CellSieve filtration); assay type: in vivo, human; details: for Number of CTCs (PD-L1) / Number of Apoptotic CTCs (CCR5) / Number of CAMLs (CCR5) / Number of CAMLs (PD-L1) / Number of CTCs (CCR5) / Number of EMTs (CCR5) / Number of EMTs (PD-L1) / CAML- Total / EMT-Total / Number of Apoptotic CTC (PD-L1) / CTC-Total: Patient D; for Number of CTCs (PD-L1): baseline 0; for Number of Apoptotic CTCs (CCR5) / Number of CAMLs (CCR5) / Number of CAMLs (PD-L1) / Number of CTCs (CCR5) / Number of EMTs (CCR5) / Number of EMTs (PD-L1): baseline 1; for CAML- Total / EMT-Total: baseline 2; for Number of Apoptotic CTC (PD-L1): baseline 3; for CTC-Total: baseline 5
Description: (§1) The primary objective of Phase 1b is to determine the safety, tolerability, and maximum tolerated dose (MTD) of PRO 140 in patients with TNBC, when combined with carboplatin to define a recommended Phase II dose of the combination. The primary objective of phase 2b is to evaluate the impact on progression-free survival (PFS) of the combination of PRO 140 and carboplatin in patients with CCR5+ TNBC previously treated with anthracyclines and taxanes in a neoadjuvant and adjuvant setting. For further investigational plan details please refer to section 5.3.5 in SNO01 (IND 141723).
(§2) Each treatment cycle consisted of 21 days. […] This treatment regimen was used for all subjects enrolled in the mTNBC study, unless otherwise indicated.
The blood sample for circulating tumor cells (CTC) and cancer-associated macrophage-like cells (CAMLs) assessment was collected at baseline and subsequently at Day 1 of each treatment cycle to assess changes in CTCs and CAMLs after treatment and to perform correlative analysis between CCR5 expression and PD-L1 expression.
Creatv Microtech has developed a size-based technology and detection methodology (LifeTrac Assay) that enables the collection and characterization of all cancer-associated cells in the blood i.e., CTCs, epithelial mesenchymal transition cells (EMTs) and CAMLs [Adams Cytometry 2015, Adams RSC 2014]. The CellSieve™ filtration platform is used to capture CAMLs and CTCs.

[2] = test system: CCR5+ metastatic Triple Negative Breast Cancer (mTNBC); experiment: Phase Ib/II mTNBC study: tumor imaging scans; assay type: in vivo, human; details: Patient D, with carboplatin
Description: as §1, §2
Scans were taken at the end of every two cycles (every 6 weeks). The subject had Scan 1 after six weeks, Scan 2 after 12 weeks, and Scan 3 after 18 weeks (Table 4).

[3] = Phase Ib/II mTNBC study: adverse events; assay type: in vivo; details: Patient D, weekly 350 mg leronlimab + carboplatin every three weeks, up to Cycle 6 Day 1 visit
Description: as §1, §2

[4] = test system: metastatic HER2+ breast cancer; experiment: Single patient emergency use IND: CT/MRI imaging of metastases; assay type: in vivo, human; details: Patient A, 700 mg weekly
Description: This subject, Patient A, is a person with a diagnosis of metastatic breast cancer, stage IV. The subject previously received Taxotere/Herceptin/Pertuzumab as frontline therapy for metastatic HER2 positive breast cancer. They had partial response for their systemic disease, but then developed diffuse brain metastases (systemic disease stable). They completed whole-brain radiation therapy and continues on Herceptin and Pertuzumab. They have neuropathy and residual side effects from chemotherapy, which limits use of current second-line options due to concern for side effects.
Prior to enrolling in the trial, the patient had 18 identifiable tumor spots in the brain.

CTC and EMT = experiment: Single patient emergency use IND: CTC and EMT counts; assay type: in vivo, human; details: Patient A, 700 mg weekly, approximately ten weeks after initiation
Procedure: Approximately ten weeks following the initiation of treatment, the subject's CTC and EMT counts were measured, and zero CTCs and zero EMTs were identified. Lesion and nodule sizes were measured in the breast and liver of Patient A and metastases were also qualitatively described (FIG. 6). Protein expression levels of CCR5 (FIG. 7A) and PD-L1 (FIG. 7B) on individual CAMLs from Patient A were measured by flow cytometry and reported as Mean Fluorescence Intensity (MFI). CCR5 MFI (“CCR5 INT”) was calculated by subtracting background signal of a negative control sample from the experimental value. CAML size was also measured and reported in […].

[5] = test system: MDA-MB-231 cells expressing Luc2-eGFP (MDA-MB-231.pFLUG); experiment: Breast cancer tumor / lung metastasis model in mice, bioluminescence imaging; assay type: in vivo, female NCI Athymic NCr-nu/nu mice
Procedure: Each mouse received one million (10^6) MDA-MB-231 cells expressing Luc2-eGFP (called MDA-MB-231.pFLUG) through the tail vein. […] Treatment was started one day before the injection.
In vivo bio-luminescence imaging was performed following intraperitoneal injection with 100 μl of D-luciferin (30 mg/mL) to the control and treated groups. […] FIG. 1D is a plot of the percentage of mice with tumors.

HIV-1 = details: at concentrations that do not affect CCR5 chemokine receptor activity; Olson 1999, Trkola 2001; cited from earlier work

CCR5, sequence (P51681 whole entry): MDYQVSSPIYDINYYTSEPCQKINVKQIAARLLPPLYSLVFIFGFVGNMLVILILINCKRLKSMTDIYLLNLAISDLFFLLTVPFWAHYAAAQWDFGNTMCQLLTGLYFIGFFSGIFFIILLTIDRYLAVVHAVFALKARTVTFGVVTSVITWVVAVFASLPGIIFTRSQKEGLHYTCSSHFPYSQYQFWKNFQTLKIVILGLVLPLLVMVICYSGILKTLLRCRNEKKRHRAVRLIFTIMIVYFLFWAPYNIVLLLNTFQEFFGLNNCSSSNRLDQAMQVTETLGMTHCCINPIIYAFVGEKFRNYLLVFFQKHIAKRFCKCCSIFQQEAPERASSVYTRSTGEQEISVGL

COC[C@@H](c1ccc(C(F)(F)F)cc1)N1CCN(C2(C)CCN(C(=O)c3c(C)ncnc3C)CC2)C[C@@H]1C [vicriviroc]
Cell killing mediated by DNA-damaging chemotherapeutic agents (CCR5): dramatically enhanced

leronlimab: humanized monoclonal anti-CCR5 antibody, humanized version of the murine mAb PA14
Detectable levels of CTC ([1]; Patient C (second subject), with carboplatin, after two weeks of treatment): no detectable levels | Reduction in EMT cells ([1]; Patient C, with carboplatin, after two weeks of treatment): 70% | CAML count ([1]; Patient C, with carboplatin, following at least two weeks of treatment, initial count 45): 30 | CCR5 expression on cancer-associated cells ([1]; Patient D (first patient), with carboplatin, approximately 11 weeks of treatment): large reductions | Detectable circulating tumor cells (CTC) or putative metastatic tumor cells in peripheral blood ([1]; Patient D (first subject), with carboplatin, following 16 weeks of treatment): no detectable | Number of CTCs (PD-L1) ([1]; with carboplatin, C1D1): 0 | Number of Apoptotic CTCs (CCR5) ([1]; with carboplatin, C1D1): 0 | Number of CAMLs (CCR5) ([1]; with carboplatin, C1D1): 0 | Number of CAMLs (PD-L1) ([1]; with carboplatin, C1D1): 1 | Number of CTCs (CCR5) ([1]; with carboplatin, C1D1): 0 | Number of EMTs (CCR5) ([1]; with carboplatin, C1D1): 1 | Number of EMTs (PD-L1) ([1]; with carboplatin, C1D1): 1 | CAML- Total ([1]; with carboplatin, C1D1): 1 | EMT-Total ([1]; with carboplatin, C1D1): 2 | Number of Apoptotic CTC (PD-L1) ([1]; with carboplatin, C1D1): 0 | CTC-Total ([1]; with carboplatin, C1D1): 0 | Number of CTCs (PD-L1) ([1]; with carboplatin, C2D1): 0 | Number of Apoptotic CTCs (CCR5) ([1]; with carboplatin, C2D1): 0 | Number of CAMLs (CCR5) ([1]; with carboplatin, C2D1): 1 | Number of CAMLs (PD-L1) ([1]; with carboplatin, C2D1): 2 | Number of CTCs (CCR5) ([1]; with carboplatin, C2D1): 0 | Number of EMTs (CCR5) ([1]; with carboplatin, C2D1): 0 | Number of EMTs (PD-L1) ([1]; with carboplatin, C2D1): 0 | CAML- Total ([1]; with carboplatin, C2D1): 3 | EMT-Total ([1]; with carboplatin, C2D1): 0 | Number of Apoptotic CTC (PD-L1) ([1]; with carboplatin, C2D1): 0 | CTC-Total ([1]; with carboplatin, C2D1): 0 | Number of CTCs (PD-L1) ([1]; with carboplatin, C3D1): 0 | Number of Apoptotic CTCs (CCR5) ([1]; with carboplatin, C3D1): 0 | Number of CAMLs (CCR5) ([1]; with carboplatin, C3D1): 3 | Number of CAMLs (PD-L1) ([1]; with carboplatin, C3D1): 1 | Number of CTCs (CCR5) ([1]; with carboplatin, C3D1): 0 | Number of EMTs (CCR5) ([1]; with carboplatin, C3D1): 0 | Number of EMTs (PD-L1) ([1]; with carboplatin, C3D1): 0 | Number of Apoptotic CTC (PD-L1) ([1]; with carboplatin, C3D1): 0 | Number of CTCs (PD-L1) ([1]; with carboplatin, C4D1): 0 | Number of Apoptotic CTCs (CCR5) ([1]; with carboplatin, C4D1): 0 | Number of CAMLs (CCR5) ([1]; with carboplatin, C4D1): 0 | Number of CAMLs (PD-L1) ([1]; with carboplatin, C4D1): 1 | Number of CTCs (CCR5) ([1]; with carboplatin, C4D1): 0 | Number of EMTs (CCR5) ([1]; with carboplatin, C4D1): 0 | Number of EMTs (PD-L1) ([1]; with carboplatin, C4D1): 0 | CAML- Total ([1]; with carboplatin, C4D1): 1 | EMT-Total ([1]; with carboplatin, C4D1): 0 | Number of Apoptotic CTC (PD-L1) ([1]; with carboplatin, C4D1): 0 | CTC-Total ([1]; with carboplatin, C4D1): 0 | Number of CTCs (PD-L1) ([1]; with carboplatin, C5D1): 0 | Number of Apoptotic CTCs (CCR5) ([1]; with carboplatin, C5D1): 0 | Number of CAMLs (CCR5) ([1]; with carboplatin, C5D1): 1 | Number of CAMLs (PD-L1) ([1]; with carboplatin, C5D1): 2 | Number of CTCs (CCR5) ([1]; with carboplatin, C5D1): 0 | Number of EMTs (CCR5) ([1]; with carboplatin, C5D1): 0 | Number of EMTs (PD-L1) ([1]; with carboplatin, C5D1): 0 | CAML- Total ([1]; with carboplatin, C5D1): 3 | EMT-Total ([1]; with carboplatin, C5D1): 0 | Number of Apoptotic CTC (PD-L1) ([1]; with carboplatin, C5D1): 0 | CTC-Total ([1]; with carboplatin, C5D1): 0 | CAML- Total ([1]; with carboplatin, C6D1): 8 | EMT-Total ([1]; with carboplatin, C6D1): 0 | CTC-Total ([1]; with carboplatin, C6D1): 0 | Detectable circulating tumor cells (CTCs) or putative metastatic tumor cells in peripheral blood ([1]; first patient of Phase 1b/2 trial, at 11 weeks of treatment): no detectable | Decrease of total CTC+EMT counts ([1]; third subject, with carboplatin, first two weeks of treatment): 75% | New lung nodules ([2]; Scan 3): no new lung nodules found | New lymphadenopathy or metastatic disease on diagnostic CT chest, abdomen and pelvis ([2]; Scan 3): No new | Previously identified right hilar lymph node ([2]; Scan 3): resolved | Right lung metastasis maximum standardized uptake values (SUVs) ([2]; Scan 3, previously 15.3): values (SUVs) of 6.8 (previously | Decrease in size of target lesion ([2]; scan 3 vs previous 2.4×1.9): 20% | Serious adverse events [3]: no serious adverse events had been reported | New metastatic spots in the liver, lung and brain (CT scan) ([4]; approximately four weeks after initial treatment): no sign of new metastatic spots | Reduction in tumor volume of the largest brain tumor ([4]; approximately two months): 56% | New metastasis in the brain ([4]; approximately two months after initial treatment): no new metastasis was detectable | Identifiable lesions in the brain ([4]; approximately two months, 18 identifiable tumor spots before): three | CTC count (CTC and EMT): zero | EMT count (CTC and EMT): zero | Tumor volume in a breast cancer tumor model ([5]; mouse, in vivo): significant reduction | HIV-1 entry and replication (HIV-1): potently inhibits

maraviroc
Lung metastasis / homing of breast cancer cells to the lungs in mouse model ([5]; FIG. 1): block homing of breast cancer cells to the lungs; also recorded: inhibition of lung metastasis; also recorded: effectively blocked lung metastases | Cell killing mediated by DNA-damaging chemotherapeutic agents (CCR5): dramatically enhanced
